According to patent publication US20080181957A1, “INCREASED AMORPHOUS STABILITY OF POORLY WATER SOLUBLE DRUGS BY NANOSIZING” (priority 2006, published 2008):

Key:
Format in all cases: physicochemical
[1] = Water solubility; settings: 25 °C
Procedure: “Water solubility” means a measure of the maximum possible concentration of a drug dissolved in water. The water temperature may be specified; in an embodiment water solubility is determined at 25 Deg. C. Units of measurement of water solubility are typically mass/volume, such as mg/ml. […] C.; preferably less than or equal to about 0.1 mg/ml at 25 Deg. […] C.

[2] = DSC amorphous stability (recrystallization) on storage at 25 Deg C; settings: FIG. 3; for crystallinity: DSC
Procedure: The amorphous state of the amorphous drug core is determined by subjecting a population of nanoparticles that comprise one or more nanoparticles that comprise the recited amorphous drug core to differential scanning calorimetry (DSC). In an embodiment, a DSC method according to the invention used a Perkin-Elmer DSC-7 or a Diamond DSC calorimeter applied for the measurement of specific transition temperatures of tested samples. Thus, the glass transition (Tg), melting (Tm) and crystallization (Tc) temperatures were measured for each sample, according to the PN-EN ISO 11357-1:2002 (ISO 11357-1:1997), ISO 11357-2:1999 and ISO 11357-3:1999 standards, at the rate of temperature change of 10 Deg C./min. The instrument was calibrated using indium, tin and zinc certified reference materials (CRMs)
The amorphous state of the amorphous drug core, as measured by DSC is expressed as a weight fraction of the weight of amorphous material in the amorphous drug core to the total weight of the amorphous drug core, expressed as an average value across the population of nanoparticles being measured. For instance, if a population of nanoparticles was measured using DSC, and the amorphous state was determined to be a particular value for the population, that value would be considered the average amorphous state for each nanoparticle within the population. An inventive amorphous drug core may contain a small amount of crystalline drug.
“Amorphous stability” means a measure of how much a material changes in its structure from being amorphous to being crystalline under defined conditions and a set timeframe. […] For instance, an amorphous material that is initially 98% w/w amorphous is considered amorphously stable according to the invention if, at the end of 6 months testing at 25 degree C., the material is at least 88% w/w amorphous. The amorphous state of a material according to the invention is determined using a DSC method as detailed above and elsewhere herein.

[3] = XRD amorphous stability of dried samples on storage; settings: storage 3 month and 1 year, nanosized sample dried by lyophilization, FIGS. 1 and 2

solubility [1] [ng/mL] | crystallinity ([2]; 4 month time point) [%] | crystallinity ([2]; 5 month time point) [%] | crystallinity ([2]; 6 month time point) [%] | storage time after which recrystallization was detectable by DSC ([2]; storage at 25 Deg C) [month] | SMILES | XRD amorphous stability [3]
≤ 0.2 | – | – | – | – | O=C(NN1CCCCC1)c1nn(-c2ccc(Cl)cc2Cl)c2c1CCC/C2=C\c1ccc(F)cc1 [COMPOUND 1] | –
– | 0.44 | 1.39 | 10.54 | 4 | O=C(NN1CCCCC1)c1nn(-c2ccc(Cl)cc2Cl)c2c1CCC/C2=C\c1ccc(F)cc1 [bulk amorphous COMPOUND 1] | XRD amorphous stability can be achieved up to 1 year
